Assay results reported in patent US5736510A, “Antibiotics 10381v, w, x,y, z1, z2, pre-b and t” (priority 1996, dated 1998).
Read-outs that look alike come from different tables or passages of the source.

Key:
Assay type in all cases: cell-based
[1] = test system: M. elsdenii; settings: strain B159; for Minimal Inhibitory Concentration (bioactivity data): Table IV (separate study)
[2] = test system: S. faecalis; settings: for Minimal Inhibitory Concentration (bioactivity data): Table IV (separate study); for M.I.C.: Table III, mass basis, no correction for purity
[3] = test system: R. flavefaciens; settings: for Minimal Inhibitory Concentration (bioactivity data): Table IV (separate study); for M.I.C.: Table III, mass basis, no correction for purity
[4] = test system: S. bovis; settings: strain JB1; for Minimal Inhibitory Concentration (bioactivity data): Table IV (separate study)
[5] = test system: B. fragilis; settings: strain UC9370; for Minimal Inhibitory Concentration (bioactivity data): Table IV (separate study)
[6] = test system: B. thetaiotaomicron; settings: strain UC9014; for Minimal Inhibitory Concentration (bioactivity data): Table IV (separate study)
Procedure: (§1) The assay measures the ability of a compound to inhibit the growth of certain types of anaerobic bacteria which normally inhabit the gut of poultry, swine or cattle.
(§2) Two mg/ml solutions of the drugs to be tested are made in 10% v/v ethanol/water. This stock is then diluted to one mg per ml and then further diluted through a series of ten-two fold dilutions. At each concentration an aliquot is placed in a sterile petri plate. Nine volumes of molten agar are then added to each plate, mixed and allowed to harden at room temperature. These plates are then transferred to a Coy chamber and allowed to dry and equilibrate with the oxygen free atmosphere.
(§3) Organisms used for MIC testing are inoculated into broth media, and incubated 18-24 h at 39° C. prior to use. The cultures are then diluted to equal the turbidity of a 0.5 MacFarland barium sulfate standard, except for the porcine isolates P108-3C1, P105-1C3 and P105-1C4 which are diluted 1:1. All inoculations and dilutions are performed in the anaerobic chamber using broth media and syringe transfer through the butyl robber stoppers.
(§4) Freshly prepared and diluted cultures are loaded into the wells of a Steers replicator device. This apparatus can dispense ca 10 μl of each of 32 cultures onto the surface of the preincubated agar plates. One hour after the inoculation, the inoculum will have been absorbed and the plates are inverted and incubated at 38°-39° C. for 48 h. Plates are then removed from the chamber and the MIC for the test compounds determined. MIC's are reported as the lowest concentration of a compound which prevented detectable growth of a test organism on the agar plates. […] Thus, each set of test plates yields individual MIC values for each of the 32 test organisms.

[7] = test system: P. ruminicola; settings: strain 118B; for Minimal Inhibitory Concentration (bioactivity data): Table IV (separate study)
[8] = test system: E. lentum; settings: strain L-34; Table IV (separate study)
[9] = test system: F. necrophorum; settings: for Minimal Inhibitory Concentration (bioactivity data): Table IV (separate study); for M.I.C.: Table III, mass basis, no correction for purity
[10] = test system: S. hyodysenteriae; design: unit not given here; settings: Table IV (separate study)
Procedure: as §1, §2, §3, §4

[11] = test system: B. fibrisolvens; settings: for Minimal Inhibitory Concentration (bioactivity data): Table IV (separate study); for M.I.C.: Table III, mass basis, no correction for purity
[12] = test system: S. ruminantium; settings: for Minimal Inhibitory Concentration (bioactivity data): Table IV (separate study); for M.I.C.: Table III, mass basis, no correction for purity
[13] = test system: E. ruminantium; settings: strain GA195; for Minimal Inhibitory Concentration (bioactivity data): Table IV (separate study)
[14] = test system: L. multiparus; settings: strain 40; for Minimal Inhibitory Concentration (bioactivity data): Table IV (separate study)
[15] = test system: anaerobic bacteria which normally inhabit the gut of poultry, swine or cattle; assay: in vitro MIC assay, overall comparison of components across the test organisms; settings: conclusion from Tables III and IV
Procedure: as §1, §2, §3, §4

[16] = test system: R. amylophilus; settings: strain H18; for Minimal Inhibitory Concentration (bioactivity data): Table IV (separate study)
[17] = test system: C. perfringens; design: Minimal Inhibitory Concentration (bioactivity data): unit not given here; settings: for Minimal Inhibitory Concentration (bioactivity data): Table IV (separate study); for M.I.C.: Table III, mass basis, no correction for purity
[18] = Table III, mass basis, no correction for purity

C=C(NC(=O)c1ccc2c(n1)-c1nc(oc1C)C(C)NC(=O)c1csc(n1)C(C)NC(=O)c1nc(oc1C)CNC(=O)C(C(C)C)NC(=O)c1csc-2n1)C(N)=O (centres unmarked) [Antibiotic 10381w]
Minimal Inhibitory Concentration (bioactivity data) [1]: > 100
Minimal Inhibitory Concentration (bioactivity data) ([2]; strain 71A01): > 100
Minimal Inhibitory Concentration (bioactivity data) ([2]; strain CCS1-03): > 100
Minimal Inhibitory Concentration (bioactivity data) ([2]; strain P1051C4): > 100
Minimal Inhibitory Concentration (bioactivity data) ([3]; strain C94): 100
Minimal Inhibitory Concentration (bioactivity data) ([3]; strain FD1): > 100
Minimal Inhibitory Concentration (bioactivity data) [4]: > 100
Minimal Inhibitory Concentration (bioactivity data) [5]: > 100
Minimal Inhibitory Concentration (bioactivity data) [6]: > 100
Minimal Inhibitory Concentration (bioactivity data) [7]: < 0.2
Minimal Inhibitory Concentration (bioactivity data) [8]: 25.0
Minimal Inhibitory Concentration (bioactivity data) ([9]; strain FN4070): > 100
Minimal Inhibitory Concentration (bioactivity data) ([9]; strain FN5052): > 100
Minimal Inhibitory Concentration (bioactivity data) ([10]; strain 16-4): > 100
Minimal Inhibitory Concentration (bioactivity data) ([10]; strain B204): > 100
Minimal Inhibitory Concentration (bioactivity data) ([11]; strain 49): > 100
Minimal Inhibitory Concentration (bioactivity data) ([11]; strain D1): > 100
Minimal Inhibitory Concentration (bioactivity data) ([12]; strain GA31): 1.6
Minimal Inhibitory Concentration (bioactivity data) ([12]; strain GA192): 12.5
Minimal Inhibitory Concentration (bioactivity data) [13]: 25
Minimal Inhibitory Concentration (bioactivity data) [14]: > 100
in vitro activity ranking of the individual components [15]: considerably less active
Minimal Inhibitory Concentration (bioactivity data) [16]: > 100
Minimal Inhibitory Concentration (bioactivity data) ([17]; strain A82-1): > 100
Minimal Inhibitory Concentration (bioactivity data) ([17]; strain A83-3): 12.5
Minimal Inhibitory Concentration (bioactivity data) ([17]; strain A83-RKP): > 100
Minimal Inhibitory Concentration (bioactivity data) ([17]; strain CCS2-09): > 100
Minimal Inhibitory Concentration (bioactivity data) ([17]; strain P1051C3): > 100
Minimal Inhibitory Concentration (bioactivity data) ([17]; strain P1083C1): > 100
Minimal Inhibitory Concentration (bioactivity data) ([17]; strain RF1B04): 100
Minimal Inhibitory Concentration (bioactivity data) ([17]; strain UC9452): > 100

C=C(NC(=O)C(=C)NC(=O)C(=C)NC(=O)c1ccc2c(n1)-c1nc(oc1C)C(C)NC(=O)c1csc(n1)C(C)NC(=O)c1nc(oc1C)CNC(=O)C(C(C)C)NC(=O)c1csc-2n1)C(N)=O (centres unmarked) [Antibiotic 10381x]
M.I.C. [1, 18]: > 100.0 µg/mL
Minimal Inhibitory Concentration (bioactivity data) [1]: > 100
M.I.C. ([2]; strain 71A01): 100.0 µg/mL
Minimal Inhibitory Concentration (bioactivity data) ([2]; strain 71A01): > 100
M.I.C. ([2]; strain CCS1-03): 50.0 µg/mL
Minimal Inhibitory Concentration (bioactivity data) ([2]; strain CCS1-03): > 100
M.I.C. ([2]; strain P1051C4): 50.0 µg/mL
Minimal Inhibitory Concentration (bioactivity data) ([2]; strain P1051C4): > 100
M.I.C. ([3]; strain C94): 3.1 µg/mL
Minimal Inhibitory Concentration (bioactivity data) ([3]; strain C94): > 100
M.I.C. ([3]; strain FD1): 6.3 µg/mL
Minimal Inhibitory Concentration (bioactivity data) ([3]; strain FD1): 100
M.I.C. [4, 18]: 25.0 µg/mL
Minimal Inhibitory Concentration (bioactivity data) [4]: > 100
M.I.C. [5, 18]: 100.0 µg/mL
Minimal Inhibitory Concentration (bioactivity data) [5]: > 100
M.I.C. [6, 18]: 50.0 µg/mL
Minimal Inhibitory Concentration (bioactivity data) [6]: > 100
M.I.C. [7, 18]: 0.2 µg/mL
Minimal Inhibitory Concentration (bioactivity data) [7]: 12.5
Minimal Inhibitory Concentration (bioactivity data) [8]: < 0.2
M.I.C. ([9]; strain FN4070): > 100.0 µg/mL
Minimal Inhibitory Concentration (bioactivity data) ([9]; strain FN4070): > 100
M.I.C. ([9]; strain FN5052): > 100.0 µg/mL
Minimal Inhibitory Concentration (bioactivity data) ([9]; strain FN5052): > 100
Minimal Inhibitory Concentration (bioactivity data) ([10]; strain 16-4): > 100
Minimal Inhibitory Concentration (bioactivity data) ([10]; strain B204): > 100
M.I.C. ([11]; strain 49): 1.6 µg/mL
Minimal Inhibitory Concentration (bioactivity data) ([11]; strain 49): > 100
M.I.C. ([11]; strain D1): 3.1 µg/mL
Minimal Inhibitory Concentration (bioactivity data) ([11]; strain D1): 100
M.I.C. ([12]; strain GA31): > 100.0 µg/mL
Minimal Inhibitory Concentration (bioactivity data) ([12]; strain GA31): 6.3
M.I.C. ([12]; strain GA192): > 100.0 µg/mL
Minimal Inhibitory Concentration (bioactivity data) ([12]; strain GA192): 6.3
M.I.C. [13, 18]: 3.1 µg/mL
Minimal Inhibitory Concentration (bioactivity data) [13]: 100
M.I.C. [14, 18]: 6.3 µg/mL
Minimal Inhibitory Concentration (bioactivity data) [14]: > 100
in vitro activity ranking of the individual components [15]: considerably less active
M.I.C. [16, 18]: > 100.0 µg/mL
Minimal Inhibitory Concentration (bioactivity data) [16]: 25.0
M.I.C. ([17]; strain 71A02): 6.3 µg/mL
M.I.C. ([17]; strain A82-1): 50.0 µg/mL
Minimal Inhibitory Concentration (bioactivity data) ([17]; strain A82-1): > 100
M.I.C. ([17]; strain A83-3): 6.3 µg/mL
Minimal Inhibitory Concentration (bioactivity data) ([17]; strain A83-3): 25.0
M.I.C. ([17]; strain A83-RKP): 1.6 µg/mL
Minimal Inhibitory Concentration (bioactivity data) ([17]; strain A83-RKP): 50.0
M.I.C. ([17]; strain CCS1-11): 50.0 µg/mL
M.I.C. ([17]; strain CCS2-09): 1.6 µg/mL
Minimal Inhibitory Concentration (bioactivity data) ([17]; strain CCS2-09): 100
M.I.C. ([17]; strain P1051C3): > 100.0 µg/mL
Minimal Inhibitory Concentration (bioactivity data) ([17]; strain P1051C3): > 100
M.I.C. ([17]; strain P1083C1): 1.6 µg/mL
Minimal Inhibitory Concentration (bioactivity data) ([17]; strain P1083C1): 100
M.I.C. ([17]; strain RF1B04): 3.1 µg/mL
Minimal Inhibitory Concentration (bioactivity data) ([17]; strain RF1B04): 50.0
M.I.C. ([17]; strain UC9452): 6.3 µg/mL
Minimal Inhibitory Concentration (bioactivity data) ([17]; strain UC9452): 50.0

C=C1NC(=O)c2nc(oc2C)C(=CC)NC(=O)c2csc(n2)C(OC)NC(=O)c2nc(oc2C)C(=CC(C)O)NC(=O)C(C(C)O)NC(=O)c2csc(n2)-c2ccc(C(N)=O)nc2-c2coc(n2)C(=C)NC1=O (centres unmarked) [Antibiotic 10381v]
Minimal Inhibitory Concentration (bioactivity data) [1]: > 100
Minimal Inhibitory Concentration (bioactivity data) ([2]; strain 71A01): > 100
Minimal Inhibitory Concentration (bioactivity data) ([2]; strain CCS1-03): > 100
Minimal Inhibitory Concentration (bioactivity data) ([2]; strain P1051C4): > 100
Minimal Inhibitory Concentration (bioactivity data) ([3]; strain C94): 25.0
Minimal Inhibitory Concentration (bioactivity data) ([3]; strain FD1): 25.0
Minimal Inhibitory Concentration (bioactivity data) [4]: > 100
Minimal Inhibitory Concentration (bioactivity data) [5]: > 100
Minimal Inhibitory Concentration (bioactivity data) [6]: > 100
Minimal Inhibitory Concentration (bioactivity data) [7]: < 0.2
Minimal Inhibitory Concentration (bioactivity data) [8]: 25.0
Minimal Inhibitory Concentration (bioactivity data) ([9]; strain FN4070): 100
Minimal Inhibitory Concentration (bioactivity data) ([9]; strain FN5052): > 100
Minimal Inhibitory Concentration (bioactivity data) ([10]; strain 16-4): > 100
Minimal Inhibitory Concentration (bioactivity data) ([10]; strain B204): > 100
Minimal Inhibitory Concentration (bioactivity data) ([11]; strain 49): 50.0
Minimal Inhibitory Concentration (bioactivity data) ([11]; strain D1): 25.0
Minimal Inhibitory Concentration (bioactivity data) ([12]; strain GA31): 25.0
Minimal Inhibitory Concentration (bioactivity data) ([12]; strain GA192): 100
Minimal Inhibitory Concentration (bioactivity data) [13]: 12.5
Minimal Inhibitory Concentration (bioactivity data) [14]: > 100
in vitro activity ranking of the individual components [15]: considerably less active
Minimal Inhibitory Concentration (bioactivity data) [16]: 3.1
Minimal Inhibitory Concentration (bioactivity data) ([17]; strain A82-1): > 100
Minimal Inhibitory Concentration (bioactivity data) ([17]; strain A83-3): 0.8
Minimal Inhibitory Concentration (bioactivity data) ([17]; strain A83-RKP): 1.6
Minimal Inhibitory Concentration (bioactivity data) ([17]; strain CCS2-09): > 100
Minimal Inhibitory Concentration (bioactivity data) ([17]; strain P1051C3): 100
Minimal Inhibitory Concentration (bioactivity data) ([17]; strain P1083C1): 100
Minimal Inhibitory Concentration (bioactivity data) ([17]; strain RF1B04): 0.8
Minimal Inhibitory Concentration (bioactivity data) ([17]; strain UC9452): 6.3
